Columns and labels:
[1] = target: T1, cyclooxygenases-1 (COX-1) (Homo sapiens, UniProt P23219); assay: COX-1 activity in U937 differentiated monocytes (Cayman COX-1 inhibitor screening system); type: cell-based; conditions: 250 μM, 6 hours; compared with fatty acids not of Formula I, p<0.05
T1 construct: endogenous in cells; host or cells: U937 differentiated monocytes
Method: FIG. 19A. Effect of various fatty acids in the inhibition of the activity of cyclooxygenases-1 (COX-1) (Cayman COX-1 inhibitor screening system). […] Cell cultures (U937 differentiated monocytes) were treated with the fatty acids of the invention (250 μM, 6 hours).
(§1) In an additional study on the release of various proinflammatory cytokines (IL-1b, IL-6, IL-8, IL-10) and TNF-α in U937 monocytes stimulated with bacterial lipopolysaccharide (LPS), a marked reduction in the levels of these molecules was observed after treatments with OHHD at a concentration of 250 μM and 72 h incubation (Table 4). The effect of the α-derivatives of cis-monounsaturated fatty acids (250 μM, 6 h) on the activity and expression of the COX-1 and COX-2 cyclooxygenases was investigated in the same system.

[2] = tested on: SF767 human brain cancer cells; assay: Tumour volume in nude mice infected with SF767 human brain cancer cells; type: in vivo; conditions: 600 mg/kg daily for 50 days; for volume of tumours (percent compared to control): p<0.001 vs control
Method: FIG. 6A. Effect of different salts of OHOD on human lung cancer in an animal cancer model. The volume of tumours in nude mice infected with SF767 human brain cancer cells (expressed as a percent compared to control) receiving various treatments. The animals received a vehicle (water: Control), 600 mg/kg of OHOD in the form of free fatty acid (OHOD), 600 mg/kg of sodium salt of OHOD (Na-OHOD) or 600 mg/kg of ammonium salt of OHOD (NH3OHOD) daily for 50 days.
FIG. 6B. Effect of different salts of OHOD on human lung cancer in an animal cancer model. The effect of different doses of sodium salt of OHOD (Na-OHOD) are shown on tumour volumes in mice infected with SF767 cells and treated with vehicle (control, 0 mg/kg), 100 mg/kg (100), 200 mg/kg (200), 400 mg/kg (400) and 600 mg/kg (600) for 50 days. * p<0.05; ***p<0.001.
One important characteristic of the molecules covered in the present invention is that they can form various types of salts. FIG. 6A and Table 5 show the therapeutic effects of various α-derivatives of cis-monounsaturated fatty acids and their salts. […] The specificity of this effect is determined by the relation between the dose and the effect these molecules have on the volume of human tumours implanted in animals (FIG. 6B).

[3] = Rat obesity induced by cafeteria diet, preventative pre-treatment (Table 3); type: in vivo, Wistar Kyoto rats; conditions: 300 mg/kg oral, after two weeks on cafeteria diet; obese control 308 ± 17, lean control 280 ± 16; * lower than obese controls, ‡ indistinguishable
Summary of the method: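 Groups of 6 female Wistar Kyoto rats (250-300 g) received oral pre-treatment with 300 mg/kg fatty acid or vehicle during 2 weeks on standard diet. Dosing continued for two further weeks on cafeteria diet, with lean and obese vehicle controls. Body-weight gain was the read-out.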

[4] = tested on: cyclooxygenase-2 (COX-2); assay: Cellular concentration of COX-2 in U937 differentiated monocytes (immunoblot); type: cell-based, human; conditions: 250 μM, 6 hours; compared with fatty acids not of Formula I, p<0.05
Method: FIG. 19B. Effect of various fatty acids in the inhibition (concentration of protein) of cyclooxygenase-2 (immunoblot of COX-2). […] Cell cultures (U937 differentiated monocytes) were treated with the fatty acids of the invention (250 μM, 6 hours).
as §1

[5] = tested on: A549 cells of human lung adenocarcinoma; assay: Prevention of tumour development in nude mice injected with A549 cells; type: in vivo; conditions: 400 mg/kg per day oral, 2 weeks before and one month after A549 injection, compared with fatty acids not of Formula I, p<0.05
Text: FIG. 2. Preventative effect of various fatty acids against tumour development. […] Animals received treatment before injection of tumour cells and the treatment was subsequently maintained. Animals of the control group were not treated and the volume of their tumours was taken as the reference value (100%).
To determine whether the fatty acids of the invention have applications in the prevention of the development of tumour processes, an animal cancer model was used. This model consisted of immune-deprived animals ([Crl:Nu(Ico)-Fox 1] nude mice in which non-microcytic human lung cancer cells were injected (5×10^6 A549 cells per animal). The control group (infected with cancer cells but untreated) started to develop tumours that were visible after a few days. The sizes of the tumours were measured for the first time at 10 days after implanting the tumour and measurements continued for up to 31 days after the implantation with a digital calliper. The volume of the tumours was calculated with the following equation: v=w^2×l/2 where v is the volume of the tumour, w is its width and l is the length. Preventative treatments against development of the cancer were applied. To carry out these treatments, 400 mg/kg were administered per day for 2 weeks before the injection of tumour cells. This treatment was continued for one month after the implantation of the tumour cells and the volume of the tumours in the animals was measured. Each experimental group was composed of 8 animals. Oral administration of α-derivatives of cis-monounsaturated fatty acids prevented cancer development (A549 cells of human lung adenocarcinoma) (FIG. 2). […] Therefore it was concluded that the introduction of a double bond in the cis configuration in the structure of the fatty acid is a critical factor in the prevention and treatment by fatty acids of cancer development.

[6] = tested on: Human glioma cells (U118); assay: Differentiation of human glioma cells (U118); type: cell-based; conditions: 200 μM
Text: FIG. 16B. Human glioma cells (U118) are astrocytes of the central nervous system ([…]) that have lost their differentiation (Control). […] This differentiating activity can be involved in neuroregenerative processes necessary for recovery of motor activity.
This effect may be due to the induction of neural projection sprouting necessary to re-establish connections lost by the nerve fibre lesion.

T1 sequence (P23219 24-599): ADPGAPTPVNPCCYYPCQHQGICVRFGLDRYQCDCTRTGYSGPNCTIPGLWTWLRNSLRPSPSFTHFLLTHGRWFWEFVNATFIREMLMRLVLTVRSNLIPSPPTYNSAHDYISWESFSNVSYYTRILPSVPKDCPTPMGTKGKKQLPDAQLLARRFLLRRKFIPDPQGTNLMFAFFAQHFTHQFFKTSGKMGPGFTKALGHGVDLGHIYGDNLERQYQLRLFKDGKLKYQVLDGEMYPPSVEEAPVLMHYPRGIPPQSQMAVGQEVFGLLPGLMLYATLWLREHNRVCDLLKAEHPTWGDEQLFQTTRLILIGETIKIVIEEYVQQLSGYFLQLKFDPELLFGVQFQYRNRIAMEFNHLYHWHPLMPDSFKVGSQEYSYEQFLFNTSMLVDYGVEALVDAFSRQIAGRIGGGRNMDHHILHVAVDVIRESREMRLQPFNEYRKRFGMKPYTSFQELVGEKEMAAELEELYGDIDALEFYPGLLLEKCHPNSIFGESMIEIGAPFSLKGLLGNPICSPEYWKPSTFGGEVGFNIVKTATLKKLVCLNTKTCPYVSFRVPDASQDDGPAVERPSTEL

inhibition of COX-1 activity (% of control) [1] | cellular concentration of COX-2 (% of control) [4] | SMILES | volume of tumours (percent compared to control) [2] | Final weight [3] | tumour volume (prevention of tumour development) [5] | potency on tumour volume compared with the free fatty acid OHOD ([2]; p<0.05) | differentiation of glioma cells [6]
more significant effect | more significant effect | CCCCCCCC/C=C\CCCCCCC(O)C(=O)O (stereo not drawn) [OHOD, α-Hydroxy-cis-Δ9-octadecenoic] | significant reductions in the size of tumours | 284 ± 13* g | more significant effect | – | –
more significant effect | more significant effect | CCCCCCCC/C=C\CCCCCCC(OC)C(=O)O (stereo not drawn) [MOOD, α-Methoxy-cis-Δ9-octadecenoic] | – | 263 ± 22* g | more significant effect | – | –
– | – | CCCCCCCC/C=C\CCCCCCC(O)C(=O)[O-].[Na+] (stereo not drawn) [Na-OHOD] | significant reductions in the size of tumours | – | – | significantly more potent | differentiate and develop towards the glial phenotype

Reference: patent publication US9730906B2, “α-derivatives of cis-monounsaturated fatty acids for use as medicines” (UNIVERSITAT DE LES ILLES BALEARS, priority 2008, dated 2017)
